Laboratory results taken from patent US9339503B2, “Tetrahydro-quinazolinone derivatives as TANK and PARP inhibitors” (MERCK PATENT GMBH, priority 2012, dated 2016).

What was measured:
[1] = molecular target: T1, GST-tagged Tankyrase-2 (873-1166 aa) (Homo sapiens, UniProt Q9H2K2); assay: Tankyrase 2 autoparsylation assay (HTRF enzyme assay); assay type: biochemical
T1 construct: GST-tagged Tankyrase-2 (873-1166 aa)
Protocol: The autoparsylation assay was run in two steps: the enzymatic reaction in which GST-tagged Tankyrase-1, resp Tankyrase-2 transferred biotinylated ADP-ribose to itself from biotinylated NAD as co-substrate and the detection reaction where a time resolved FRET between cryptate labelled anti-GST bound to the GST tag of the enzyme and Xlent® labelled-streptavidin bound the biotin-parsylation residue was analysed. The autoparsylation activity was detectable directly via the increase in HTRF signal.
The autoparsylation assay was performed as 384-well HTRF® (Cisbio, Codolet, France) assay format in Greiner low volume nb 384-well microtiter plates and was used for high throughput screen. 250 nM GST-tagged Tankyrase-1 (1023-1327 aa), respectively about 250 nM GST-tagged Tankyrase-2 (873-1166 aa) and 5 μM bio-NAD (Biolog, Life science Inst., Bremen, Germany) as co-substrate were incubated in a total volume of 5 μl (50 mM HEPES, 4 mM Mg-chloride, 0.05% Pluronic F-68, 1.4 mM DTT, 0.5% DMSO, pH 7.7) in the absence or presence of the test compound (10 dilution concentrations) for 90 min at 30° C. The reaction was stopped by the addition of 1 μl 50 mM EDTA solution. 2 μl of the detection solution (1.6 μM SA-Xlent® (Cisbio, Codolet, France), 7.4 nM Anti-GST-K® (Eu-labelled anti-GST, Cisbio, Codolet, France) in 50 mM HEPES, 800 mM KF, 0.1% BSA, 20 mM EDTA, 0.1% CHAPS, pH 7.0) were added. After 1 h incubation at room temperature the HTRF was measured with an Envision multimode reader (Perkin Elmer LAS Germany GmbH) at excitation wavelength 340 nm (laser mode) and emission wavelengths 615 nm and 665 nm. The ratio of the emission signals was determined. The full value used was the inhibitor-free reaction. The pharmacological zero value used was XAV-939 (Tocris) in a final concentration of 5 μM. The inhibitory values (IC50) were determined using either the program Symyx Assay Explorer® or Condosseo® from GeneData.

[2] = molecular target: T2, GST-tagged Tnks-2 (873-1166 aa) (Homo sapiens, UniProt Q9H2K2); assay: TNKS 2 activity ELISA (autoparsylation assay); assay type: biochemical; conditions: read-out: IC50 tankyrase 2 (ELISA assay)
T2 construct: GST-tagged Tnks-2 (873-1166 aa, prepared in-house); made in house
T2 sequence (Q9H2K2 873-1166): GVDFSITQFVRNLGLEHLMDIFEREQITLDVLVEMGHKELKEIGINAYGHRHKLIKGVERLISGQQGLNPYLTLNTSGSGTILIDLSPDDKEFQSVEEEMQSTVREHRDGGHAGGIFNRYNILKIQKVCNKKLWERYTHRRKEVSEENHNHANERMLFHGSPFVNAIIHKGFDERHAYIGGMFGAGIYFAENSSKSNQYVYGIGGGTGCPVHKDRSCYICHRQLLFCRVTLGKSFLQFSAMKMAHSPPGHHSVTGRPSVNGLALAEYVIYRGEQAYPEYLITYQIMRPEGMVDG
Protocol: Biochemical Activity Testing of TNKS 1 and 2: Activity ELISA (Autoparsylation Assay)
For analysis of autoparsylation activity of TNKS 1 and 2 an activity ELISA was performed: In the first step GST tagged TNKS was captured on a Glutathione coated plate. Then the activity assay with biotinylated NAD was performed in the absence/presence of the compounds. During the enzymatic reaction GST tagged TNKS transferred biotinylated ADP-ribose to itself from biotinylated NAD as co-substrate. For the detection streptavidin-HRP conjugate was added that bound to the biotinylated TNKS and was thereby captured to the plates. The amount of biotinylated resp autoparsylated TNKS was detected with a luminescence substrate for HRP. The level of the luminescence signal correlated directly with the amount of autoparsylated TNKS and therefore with activity of TNKS.
The activity ELISA was performed in 384 well Glutathione coated microtiter plates (Express capture Glutathione coated plate, Biocat, Heidelberg, Germany). The plates were pre-equilibrated with PBS. Then the plates were incubated with 50 μl 20 ng/well GST-tagged Tnks-1 (1023-1327 aa, prepared in-house), respectively GST-tagged Tnks-2 (873-1166 aa, prepared in-house) in assay buffer (50 mM HEPES, 4 mM Mg-chloride, 0.05% Pluronic F-68, 2 mM DTT, pH 7.7) overnight at 4° C. The plates were washed 3 times with PBS-Tween-20. The wells were blocked by incubation at room temperature for 20 minutes with 50 μl blocking buffer (PBS, 0.05% Tween-20, 0.5% BSA). Afterwards the plates were washed 3 times with PBS-Tween-20. The enzymatic reaction was performed in 50 μl reaction solution (50 mM HEPES, 4 mM Mg-chloride, 0.05% Pluronic F-68, 1.4 mM DTT, 0.5% DMSO, pH 7.7) with 10 μM bio-NAD (Biolog, Life science Inst., Bremen, Germany) as co-substrate in the absence or presence of the test compound (10 dilution concentrations) for 1 hour at 30° C. The reaction was stopped by 3 times washing with PBS-Tween-20. For the detection 50 μl of 20 ng/μl Streptavidin, HRP conjugate (MoBiTec, Göttingen, Germany) in PBS/0.05% Tween-20/0.01% BSA were added and the plates were incubated for 30 minutes at room temperature. After three times washing with PBS-Tween-20 50 μl of SuperSignal ELISA Femto Maximum sensitivity substrate solution (ThermoFisherScientific (Pierce), Bonn, Germany) were added. Following a 1 minute incubation at room temperature luminescence signals were measured with an Envision multimode reader (Perkin Elmer LAS Germany GmbH) at 700 nm. The full value used was the inhibitor-free reaction. The pharmacological zero value used was XAV-939 (Tocris) in a final concentration of 5 μM. The inhibitory values (IC50) were determined using either the program Symyx Assay Explorer® or Condosseo® from GeneData.

T1 sequence (Q9H2K2 873-1166): as above

Compound | IC50 [1] [nM] | IC50 [2] [nM]
COc1ccc(N2CCN(c3nc4c(c(=O)[nH]3)CCCC4)CC2)cc1 [Compound A3, 2-[4-(4-methoxy-phenyl)-piperazin-1-yl]-5,6,7,8-tetrahydro-3H-quinazolin-4-one] | 300 to 3000 | < 300
O=c1[nH]c(N2CCN(c3ccc(F)cc3)CC2)nc2c1CCCC2 [Compound A6, 2-[4-(4-Fluorophenyl)piperazin-1-yl]-5,6,7,8-tetrahydro-3H-quinazolin-4-one] | 300 to 3000 | < 300
COc1cccc(N2CCN(c3nc4c(c(=O)[nH]3)CCCC4)CC2)c1 [Compound A7, 2-[4-(3-Methoxyphenyl)piperazin-1-yl]-5,6,7,8-tetrahydro-3H-quinazolin-4-one] | 300 to 3000 | < 300
O=c1[nH]c(N2CCN(c3ccccc3Cl)CC2)nc2c1CCCC2 [Compound A9, 2-[4-(2-Chlorophenyl)piperazin-1-yl]-5,6,7,8-tetrahydro-3H-quinazolin-4-one] | 300 to 3000 | < 300
COc1ccccc1N1CCN(c2nc3c(c(=O)[nH]2)CCCC3)CC1 [Compound A12, 2-[4-(2-Methoxyphenyl)piperazin-1-yl]-5,6,7,8-tetrahydro-3H-quinazolin-4-one] | 300 to 3000 | < 300
N#Cc1ccccc1N1CCN(c2nc3c(c(=O)[nH]2)CCCC3)CC1 [Compound A33, 2-[4-(4-oxo-5,6,7,8-tetrahydro-3H-quinazolin-2-yl)piperazin-1-yl]benzonitrile] | 300 to 3000 | < 300
COc1cc(F)ccc1N1CCN(c2nc3c(c(=O)[nH]2)CCCC3)CC1 [Compound A36, 2-[4-(4-fluoro-2-methoxy-phenyl)piperazin-1-yl]-5,6,7,8-tetrahydro-3H-quinazolin-4-one] | 300 to 3000 | < 300
